Laboratory results taken from patent US7713960B2, “Inhibition of the Raf/Mek/P-Erk pathway for treating cancer” (University of South Florida, priority 2005, dated 2010).
Values joined by “and” are separate entries in the source; they are usually repeats but may differ in a detail not shown here. Equal entries are not always repeated. Structures can show the parent of a compound that is named as a salt.

Key:
SF-539 cells [1] = assay: Apoptosis assay (Cell Death Detection ELISA), SF-539; format: cell-based, human; details: 48 hours
Experimental: (§1) Apoptosis Assay—Apoptosis was analyzed using the Cell Death Detection ELISA (Roche, Indianapolis, Ind.) measuring cytoplasmic histone-associated mono- and oligonucleosome DNA fragments. Procedures were carried out according to the manufacturers protocol. Briefly, 1×10^5 cells were plated in 60 mm dishes and treated with various doses of ARA-211 or vehicle for 48 hours. Cells were lysed with the provided lysis buffer and lysate was incubated on the ELISA plate for 1 hour to capture the histone associated DNA indicative of apoptotic cells. Anti-DNA peroxidase conjugated antibody was added to detect the cleaved DNA and the microplate was washed and developed with ABTS substrate which was quantitated by microplate reader at 405 nm.

SNB-19 cells = assay: Apoptosis assay (Cell Death Detection ELISA), SNB-19; format: cell-based, human; details: 48 hours, two single values
Experimental: as §1

total Erk 1/2 = assay: Total Erk 1/2 levels, MDA-MB-231; format: cell-based, human; details: at 10 nM
Experimental: (§2) Western Blotting—Treated cell samples were lysed in 30 mM HEPES, 10 mM NaCl, 5 mM MgCl2, 25 mM NaF, 1 mM EGTA, 1% Triton-X-100, 10% Glycerol, 2 mM Sodium orthovanidate, 10 μg/mL aprotinin, 10 μg/mL soybean trypsin inhibitor, 25 μg/mL leupeptin, 2 mM phenylmethylsulfonylfluoride (PMSF), 6.4 mg/mL p-nitrophenylphosphate for 30 minutes at 4° C., and proteins run on SDS-PAGE gels then transferred to nitrocellulose membranes. Membranes were blocked in either 5% milk in PBS, pH 7.4, containing 0.1% Tween-20 (PBS-T) or 1% BSA in TBS, pH 7.5, containing 0.1% Tween-20 (TBS-T). Phospho-STAT3 and phospho-AKT antibodies were diluted in 1% BSA in TBS-T while phospho-c-Raf, phospho-Mek, and phospho-p44/p42 MAPK antibodies (Cell Signaling) were diluted in 5% milk in PBS-T for either 1 hour at room temperature or overnight at 4° C. HRP-conjugated secondary antibodies (Jackson ImmunoResearch, West Grove, Pa.) were diluted in 5% milk in PBS-T or TBS-T at a 1:1000 dilution for one hour at room temperature. Western blots results were visualized using enhanced chemiluminescence. Stripping of the membranes for reblotting was done using stripping buffer (62.5 mM Tris pH 7.6, 2% SDS, 0.7% 2-mercaptoethanol) at 50° C. for 30 minutes.

MDA-MB-231 cells = assay: Anchorage-dependent growth (MTT assay), MDA-MB-231; format: cell-based, human
Experimental: (§3) MTT Assay—2000 cells per well were plated into 96 well tissue culture plates, and the cells were allowed to attach overnight at 37° C. with 10% CO2. Cells were then treated with increasing concentrations of ARA-211, or vehicle (DMSO) and incubated for four days. At that time treatment medium was removed and replaced with 100 μl of lmg/ml MTT (Sigma-Aldrich, St. Louis, Mo.) in media and incubated at 37° C., 10% CO2 for 3 hours. After 3 hours the MTT media was removed and replaced with 100 μl/well of DMSO, rocked at room temperature for 5 minutes, then absorbance read at 540 nm on a micro-plate reader.

SF-539 cells [2] = assay: Anchorage-independent growth (soft agar assay), SF-539; format: cell-based, human
Experimental: Soft Agar Assay—Anchorage independent growth assays were performed as previously described (Lerner et al., 1997). Briefly, agar was diluted to 0.3% in propagation media containing 20,000 cells and either vehicle or ARA-211 and 1 ml of cell/agar mixture plated on top of 2 ml of a 0.6% layer of agar in medium alone. Cells were grown for three to four weeks at 37° C., 10% Co2 and were fed weekly with 100 μl per well of media/treatment. Quantification of colonies was done using a GS-700 scanning densitometer.

HCT-116 cells [3] = assay: Total cellular cAMP measurement, HCT-116; format: cell-based, human
Experimental: Total cellular cAMP measurement—The measurement of total cellular cAMP was done using a cAMP Biotrak ™ Enzymeimmunoassay (EIA) system (Amersham Biosciences, Piscataway, N.J.) according to the manufacturer's protocol. Briefly, 2000 cells were plated into each well of a 96 well plate. The next day cells were treated with increasing concentrations of ARA-211 or with vehicle for one hour. Alternatively, MDA-MB-231 cells were pre-treated with antagonists to the α1 (Prazosin, Sigma), α2 (Yohimbine, Sigma), β1 (Metoprolol, Sigma), and β2 (ICI 118.551, Sigma) adrenergic receptors at 100 nM for 15 minutes followed by treatment with 10 μM ARA-211 for 45 minutes. Cells were then lysed directly in the wells using the supplied lysis buffer. The lysate was transferred to a 96-well cAMP ELISA plate, and results were quantified using a Wallac Victor 2 plate reader.

P-Erk 1/2 [4] = assay: P-Erk 1/2 levels (Western blotting), HCT-116; format: cell-based, human
Experimental: as §2

A-549 cells [5] = assay: Apoptosis assay (Cell Death Detection ELISA), A-549; format: cell-based, human; details: 48 hours, two single values, dihydrochloride
Experimental: as §1

P-Erk 1/2 [6] = assay: P-Erk 1/2 levels (Western blotting), ACHN; format: cell-based, human
Experimental: as §2

SF-539 cells [7] = assay: Anchorage-dependent growth (MTT assay), SF-539; format: cell-based, human
Experimental: as §3

HCT-116 cells [8] = assay: Nude mouse xenograft model, HCT-116 (s.c.); format: in vivo, nude mice; details: HCT-116 xenograft; i.p. 75 mpk/day
Text: Anti-tumor activity in nude mouse xenograft model—Female athymic nude (nu/nu) mice, 5-6 weeks old, were purchased from Charles River (Wilmington, Mass.) and allowed to acclimate in the animal facility for one week. After harvesting, A-549, SNB-19, ACHN, and HCT-116 cells were, resuspended in sterile PBS, and injected s.c. into the right and left flanks (10×10^6 cells per flank) of the mice as previously described (Sun et al., 2005). For MDA-MB-231, cells were harvested and resuspended in PBS (10×10^6 cells per 50 μl) and an equal volume of Matrigel (BD Biosciences, San Jose, Calif.). 100 μl of MDA-MB-231 cells in PBS/Matrigel were injected s.c. into the mammary fat pads between the 2nd and 3rd nipples on each side of the mice. Once the tumors reached approximately 200-300 mm^3 the mice were randomized and treated i.p. with 0.1 ml vehicle (PBS) or ARA-211. Each treatment group consisted of five mice (2 tumors per mouse, a total of 10 tumors). The tumor volumes were determined by measuring the length (l) and width (w) and calculating the volume (V=w^2l/2). Statistical significance between the control and treated animals was determined using a student's t test.

A-549 cells [9] = assay: Anchorage-dependent growth (MTT assay), A-549; format: cell-based, human
Experimental: as §3

P-Erk 1/2 [10] = assay: P-Erk 1/2 levels, MCF-7; format: cell-based, human; details: MCF-7 (breast)
Experimental: as §2

P-Erk 1/2 [11] = assay: P-Erk 1/2 levels (Western blotting), SNB-19; format: cell-based, human
Experimental: as §2

In the case of `CC(C)(C)NCC(O)c1ccc(O)c(CO)n1` (centres unmarked) [ARA-211, 2-hydroxymethyl-3-hydroxy-6-(1-hydroxy-2-tert-butylaminoethyl) pyridine, dihydrochloride], the “Apoptosis (% Induction)” value (SF-539 cells [1]) is reported as 9 ± 1.7%, the “Apoptosis (% Induction)” value (SNB-19 cells) is reported as 0, 0% and the “levels of total Erk 1/2” value (total Erk 1/2) is reported as “without affecting”. For the same compound, the “Anchorage Dependent Growth (% Inhibition)” value (MDA-MB-231 cells) was 60.6 ± 6.5%, the “Anchorage Independent Growth (% Inhibition)” value (SF-539 cells [2]) was 94.4 ± 1.5% and the “cAMP (Fold Induction)” value (HCT-116 cells [3]) was 1.1 ± 0.1 Fold. For the same compound, the “P-Erk ½ (% Inhibition)” value (P-Erk 1/2 [4]) was 0%, the “Apoptosis (% Induction)” value (A-549 cells [5]) was 3.1% and 2.2% and the “P-Erk ½ (% Inhibition)” value (P-Erk 1/2 [6]) was 91%. For the same compound, the “Anchorage Dependent Growth (% Inhibition)” value (SF-539 cells [7]) was 55 ± 6.9%, the growth of tumors (HCT-116 cells [8]) was “is not affected” and the “Anchorage Dependent Growth (% Inhibition)” value (A-549 cells [9]) was 9.6 ± 6.1%. For the same compound, the “inhibition of P-Erk 1/2 levels” value (P-Erk 1/2 [10]) was “did not” and the “P-Erk ½ (% Inhibition)” value (P-Erk 1/2 [11]) was 0%.
